The subject of one experiment is 22Rv1 tumors. Nature of the experiment: 22Rv1 prostate tumor model (Example 3). Type of experiment: in vivo, male Balb/c nude mice. Particulars: for Tumor volume (mean ± SEM): 30 mg/kg PO QD. On the procedure:
The in vivo anti-tumor efficacy of the compound of formula (I) either alone or in combination with enzalutamide prostate tumor model on male Balb/c nude mice was evaluated. The cell line is derived from a xenograft that was serially propagated in mice after castration—induced regression and relapse of the parental, androgen-dependent CWR22 xenograft.
In the study, the compound of formula (I) was dosed orally (po) once daily (QD) and enzalutamide, when administered, was dosed orally once daily for 25 days, as shown in Table 8.
The 22Rv1 tumor cells were maintained in vitro in RPMI1640 medium supplemented with 10% heat inactivated fetal bovine serum at 37° C. in an atmosphere of 5% CO2 in air. The tumor cells were routinely subcultured twice weekly. The cells growing in an exponential growth phase were harvested and counted for tumor inoculation.
Each mouse was inoculated subcutaneously at the right flank with 22Rv1 tumor cells (5*10^6) with 50% Matrigel for tumor development. The treatments were started on day 7 after tumor inoculation when the average tumor volume reached 94 mm^3. A total of 48 mice were selected and assigned into 6 groups. The testing articles were administrated to the mice according to Table 8.
The major endpoint was to see if the tumor growth could be delayed or mice could be cured. Tumor size was measured twice weekly in two dimensions using a caliper, and the volume was expressed in mm^3 using the formula: V=0.5 a×b^2 where a and b are the long and short diameters of the tumor, respectively. The tumor sizes are then used for the calculation of T/C and TGI values.
The T/C value (in percent) is an indication of antitumor effectiveness; T and C are the mean volume of the treated and control groups, respectively, on a given day.
TGI was calculated for each group using the formula: TGI (%)=[1−(Ti−T0)/(Vi−V0)]×100; Ti is the average tumor volume of a treatment group on PG-Di, T0 is the average tumor volume of the treatment group on the day of treatment start, Vi is the average tumor volume of the vehicle control group on the same day with Ti, and V0 is the average tumor volume of the vehicle group on the day of treatment start.
All groups were taken down on PG-D24 and PG-D25 when the average tumor size of vehicle group reached 2305 mm^3.
Summary statistics, including mean and the standard error of the mean (SEM), are provided for the tumor volume of each group at each time point. For comparison among groups, a one-way ANOVA was performed. All the analysis were conducted using GraphPad Prism software. p<0.05 was considered to be statistically significant.

Experiment [1] has as its system tumor fragments from a mCRPC patient. The experiment in a line: Enzalutamide-resistant patient-derived xenograft prostate model (ST2347 PDX). Type of experiment: in vivo, male Balb/c nude mice. The settings on record: 30 mg/kg oral QD. (In general: In xenograft studies the graft and the host belong to different species.)
In a further experiment the test system is VCap prostate cancer. Nature of the experiment: Non-castrated VCap prostate cancer model. Type of experiment: in vivo, male CB17/Scid mice. Particulars: Group 2: Enzalutamide 20 mg/kg p.o. QD * 26 days. The procedure:
Compound (I), enzalutamide, and abiraterone were tested in non-castrated VCap prostate cancer model in male CB17/Scid mice.
All treatment groups reduced mean tumor volume.

Where [2] appears, read: enzalutamide 30 mg/kg QD, PG-D24.

A word on the T/C: it is the ratio of treated to control. As a reminder, the TGI is the reduction of tumour growth relative to the control group.

On to `CNC(=O)c1ccc(N2C(=S)N(c3ccc(C#N)c(C(F)(F)F)c3)C(=O)C2(C)C)cc1F` [Enzalutamide, reference compound], for which the “Tumor volume (mean ± SEM)” value is 94 ± 4 mm^3 in the experiment with 22Rv1 tumors (day 0); 177 ± 13 mm^3 with 22Rv1 tumors (day 3); 345 ± 23 mm^3 in the experiment with 22Rv1 tumors (day 7); 507 ± 53 mm^3 with 22Rv1 tumors (day 10); 825 ± 65 mm^3 in the experiment on 22Rv1 tumors (day 14); 1115 ± 65 mm^3 in the experiment with 22Rv1 tumors (day 17). The “Tumor volume (mean ± SEM)” value was 1531 ± 143 mm^3 in the experiment with 22Rv1 tumors (day 21); 1814 ± 186 mm^3 with 22Rv1 tumors (day 24); 171.8 ± 6.1 mm^3 in the experiment with VCap prostate cancer (Day 0); 287.4 ± 17^ mm^3 in the experiment with VCap prostate cancer (Day 4); 352.2 ± 28.8 mm^3 with VCap prostate cancer (Day 7); 542.8 ± 50.7 mm^3 in the experiment with VCap prostate cancer (Day 11). Moreover, the “Tumor volume (mean ± SEM)” value in the experiment with VCap prostate cancer (Day 14) amounted to 662.7 ± 51.7 mm^3; in the experiment with VCap prostate cancer (Day 18) it was 761.9 ± 60.9 mm^3; in the experiment with VCap prostate cancer (Day 21) it was 891.2 ± 82.8 mm^3; in the experiment on VCap prostate cancer (Day 25), 1005.9 ± 71.4 mm^3. Moreover, the T/C in the experiment on 22Rv1 tumors (setting [2]) came out at 78.69%. Further, the inhibition of tumour growth (TGI) in the experiment with 22Rv1 tumors (setting [2]) came to 22.17%. The “Antitumor activity over the course of the treatment” value in experiment [1] is given as “minimal effect”.

The values above are taken from patent US20230000876A1, “TREATING CANCERS WITH A CYCLIN-DEPENDENT KINASE INHIBITOR” (Nuvation Bio Inc., priority 2021, published 2023).
